Reference: ChEMBL document CHEMBL1141082, “4-Anilino-7,8-dialkoxybenzo[g]quinoline-3-carbonitriles as potent Src kinase inhibitors” (J Med Chem, 2005)

Experiments:
[1] = test system: Mus musculus; assay: Plasma levels in nude mouse after administration at a single dose of 50 mg/kg ip after 24 hours; type: functional; conditions: route intraperitoneal
[2] = test system: Mus musculus; assay: Plasma levels in nude mouse after administration at a single dose of 50 mg/kg ip after 4 hours; type: functional; conditions: route intraperitoneal
[3] = species: Mus musculus; conditions: dose 50 mg/kg; route intraperitoneal
[4] = test system: Mus musculus; assay: Plasma levels in nude mouse after administration at a single dose of 50 mg/kg ip after 0.5 hours; type: functional; conditions: route intraperitoneal
[5] = test system: Mus musculus; assay: Plasma levels in nude mouse after administration at a single dose of 50 mg/kg ip after 8 hours; type: functional; conditions: route intraperitoneal
[6] = molecular target: Serine/threonine-protein kinase AKT (Homo sapiens, UniProt P31751+Q9Y243+P31749); assay: Inhibitory concentration against AKT; type: protein assay
[7] = test system: Mus musculus; assay: Plasma levels in nude mouse after administration at a single dose of 50 mg/kg ip after 8 hr; type: functional; conditions: route intraperitoneal
[8] = test system: Mus musculus; assay: Plasma levels in nude mouse after administration at a single dose of 50 mg/kg ip after 4 hr; type: functional; conditions: route intraperitoneal
[9] = molecular target: Proto-oncogene tyrosine-protein kinase Src (Homo sapiens, UniProt P12931); assay: Inhibitory concentration against Src kinase
Proto-oncogene tyrosine-protein kinase Src, sequence (P12931 2-536 limits assumed): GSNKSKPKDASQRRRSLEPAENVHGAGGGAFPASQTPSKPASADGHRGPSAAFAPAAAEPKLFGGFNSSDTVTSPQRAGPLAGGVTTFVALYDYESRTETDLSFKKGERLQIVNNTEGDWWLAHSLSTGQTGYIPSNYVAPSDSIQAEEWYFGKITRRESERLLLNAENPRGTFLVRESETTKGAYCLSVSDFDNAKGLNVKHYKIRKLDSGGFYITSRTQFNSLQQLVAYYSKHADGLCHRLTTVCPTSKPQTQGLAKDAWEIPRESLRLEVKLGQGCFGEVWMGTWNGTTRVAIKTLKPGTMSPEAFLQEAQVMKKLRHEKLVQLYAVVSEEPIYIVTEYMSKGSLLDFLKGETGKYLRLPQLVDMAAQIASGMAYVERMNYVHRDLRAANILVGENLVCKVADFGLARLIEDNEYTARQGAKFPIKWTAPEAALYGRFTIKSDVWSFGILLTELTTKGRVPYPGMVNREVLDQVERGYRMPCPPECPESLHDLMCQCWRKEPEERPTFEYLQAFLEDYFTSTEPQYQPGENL

[10] = molecular target: Cyclin-dependent kinase 4 (Homo sapiens, UniProt P11802); assay: Inhibitory concentration against CDK4
Cyclin-dependent kinase 4, sequence (P11802 whole entry): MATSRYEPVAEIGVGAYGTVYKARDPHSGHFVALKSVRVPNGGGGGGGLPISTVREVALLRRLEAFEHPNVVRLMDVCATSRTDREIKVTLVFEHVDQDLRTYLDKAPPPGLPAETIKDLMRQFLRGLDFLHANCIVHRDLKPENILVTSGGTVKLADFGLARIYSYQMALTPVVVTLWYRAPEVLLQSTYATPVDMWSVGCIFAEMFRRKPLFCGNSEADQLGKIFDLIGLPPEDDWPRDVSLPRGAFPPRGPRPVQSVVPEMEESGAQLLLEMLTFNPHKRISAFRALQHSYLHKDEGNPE

[11] = molecular target: Receptor tyrosine-protein kinase erbB-2 (Homo sapiens, UniProt P04626); assay: nhibitory concentrations against ErbB-2
Receptor tyrosine-protein kinase erbB-2, sequence (P04626 whole entry): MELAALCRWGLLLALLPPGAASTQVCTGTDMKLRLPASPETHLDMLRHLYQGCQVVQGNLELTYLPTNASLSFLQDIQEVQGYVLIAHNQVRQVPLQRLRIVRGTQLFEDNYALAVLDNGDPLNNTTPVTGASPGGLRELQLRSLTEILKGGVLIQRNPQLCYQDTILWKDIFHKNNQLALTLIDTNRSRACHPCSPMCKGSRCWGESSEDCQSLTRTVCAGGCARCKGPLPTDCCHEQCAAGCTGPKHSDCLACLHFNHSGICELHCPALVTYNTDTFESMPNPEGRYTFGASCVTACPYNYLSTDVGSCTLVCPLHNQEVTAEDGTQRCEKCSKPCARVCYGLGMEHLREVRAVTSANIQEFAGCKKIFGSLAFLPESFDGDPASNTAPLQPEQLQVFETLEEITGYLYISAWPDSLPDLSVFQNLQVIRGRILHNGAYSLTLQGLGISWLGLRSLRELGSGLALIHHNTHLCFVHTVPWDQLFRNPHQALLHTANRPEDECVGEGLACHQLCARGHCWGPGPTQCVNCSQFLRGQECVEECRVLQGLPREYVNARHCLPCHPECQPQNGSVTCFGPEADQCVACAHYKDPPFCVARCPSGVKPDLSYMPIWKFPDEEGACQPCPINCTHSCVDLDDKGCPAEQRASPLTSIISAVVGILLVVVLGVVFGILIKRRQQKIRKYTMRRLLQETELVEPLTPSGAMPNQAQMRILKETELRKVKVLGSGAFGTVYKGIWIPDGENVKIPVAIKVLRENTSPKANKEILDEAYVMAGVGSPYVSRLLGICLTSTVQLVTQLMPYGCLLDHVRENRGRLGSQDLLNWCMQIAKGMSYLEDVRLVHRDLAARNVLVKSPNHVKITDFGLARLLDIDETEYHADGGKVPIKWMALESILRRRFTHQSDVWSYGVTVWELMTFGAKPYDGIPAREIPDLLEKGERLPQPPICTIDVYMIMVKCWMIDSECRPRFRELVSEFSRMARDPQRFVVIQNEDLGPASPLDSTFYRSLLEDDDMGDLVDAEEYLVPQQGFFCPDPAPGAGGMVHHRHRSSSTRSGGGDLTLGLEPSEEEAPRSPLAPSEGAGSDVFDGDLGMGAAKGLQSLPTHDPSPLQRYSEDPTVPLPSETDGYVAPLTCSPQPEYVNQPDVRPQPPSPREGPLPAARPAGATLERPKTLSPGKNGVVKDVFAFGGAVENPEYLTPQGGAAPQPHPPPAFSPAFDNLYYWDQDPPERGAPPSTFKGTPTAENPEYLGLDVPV

Structure (SMILES)	Activity [1] [µg/mL]	Activity [2] [µg/mL]	Growth inhibiton [3] [%]	Activity [4] [µg/mL]	Activity [5] [µg/mL]	IC50 [6] [nM]	Activity [7] [µg/mL]	Activity [8] [µg/mL]	IC50 [9] [nM]	IC50 [10] [nM]	IC50 [11] [nM]
COc1cc(Nc2c(C#N)cnc3cc4cc(OCCN5CCN(C)CC5)c(OC)cc4cc23)c(Cl)cc1Cl	0.24	0.63	20	1.3	0.7						
COc1cc(Nc2c(C#N)cnc3cc4cc(OCCN5CCOCC5)c(OC)cc4cc23)c(Cl)cc1Cl	0.02		25	2.1		> 10000	0.3	1.9	0.46	> 10000	2500
